Measured values from PubChem BioAssay AID248 (DTP/NCI, 2004).
Several values for one entry are separate records, joined by “and”; a condition that tells them apart may be missing. Equal entries are not always repeated. Toxic doses and inconclusive results are not listed. Rule as the data show it: active = T/C of 150% or more; inactive = T/C below 125%.

Test system: L1210 leukemia ip in BDF1 mice, survival T/C
Assay: NCI In Vivo Anticancer Drug Screen. Data for tumor model L1210 Leukemia (intraperitoneal) in B6D2F1 (BDF1) mice
Settings: endpoint: mean survival time, higher = longer survival
Procedure, shortened: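 Each compound was tested against a transplantable tumor grown in mice. The endpoint was survival, with treated animals benchmarked against vehicle controls as a simple ratio.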

[1] = dose: 50.0 mg/kg/injection, schedule: Q01DX009 (ip), vehicle: saline
[2] = dose: 100.0 mg/kg/injection, schedule: Q01DX009 (ip), vehicle: saline
[3] = dose: 100.0 mg/kg/injection, schedule: Q01DX001 (ip), vehicle: other
[4] = dose: 200.0 mg/kg/injection, schedule: Q01DX001 (ip), vehicle: other
[5] = dose: 400.0 mg/kg/injection, schedule: Q01DX001 (ip), vehicle: other
[6] = dose: 100.0 mg/kg/injection, schedule: Q04DX003 (ip), vehicle: Klucel (hydroxypropylcellulose) (HPC)
[7] = dose: 100.0 mg/kg/injection, schedule: Q01DX001 (ip), vehicle: saline
[8] = dose: 200.0 mg/kg/injection, schedule: Q01DX001 (ip), vehicle: saline
[9] = dose: 400.0 mg/kg/injection, schedule: Q01DX001 (ip), vehicle: saline
[10] = dose: 200.0 mg/kg/injection, schedule: Q04DX003 (ip), vehicle: Klucel (hydroxypropylcellulose) (HPC)
[11] = dose: 100.0 mg/kg/injection, schedule: Q04DX003 (ip), vehicle: saline
[12] = dose: 200.0 mg/kg/injection, schedule: Q01DX009 (ip), vehicle: saline
[13] = dose: 200.0 mg/kg/injection, schedule: Q04DX003 (ip), vehicle: saline
[14] = dose: 400.0 mg/kg/injection, schedule: Q04DX003 (ip), vehicle: saline
[15] = dose: 25.0 mg/kg/injection, schedule: Q01DX009 (ip), vehicle: Klucel (hydroxypropylcellulose) (HPC)

Measured: T/C

CC(N)C(=O)c1ccccc1 (stereo unspecified)
inactive: [1] 97 % of control | [2] 92 % of control

CC(C)CC([NH-])C(=O)[O-].O=C(O)C(=O)O.[Co+3].[NH-]CCN(CC[NH-])CC[NH-]
inactive: dose: 50.0 mg/kg/injection, schedule: Q01DX001 (ip), vehicle: other 92 % of control | [3] 100 % of control | [4] 94 % of control | [5] 86 % of control

CC(=O)OC1C(OS(=O)(=O)c2ccc(C)cc2)C(COC(=O)c2ccccc2)OC1n1cnc2c(NC(=O)c3ccccc3)ncnc21 (stereo unspecified)
inactive: dose: 100.0 mg/kg/injection, schedule: Q01DX005 (ip), vehicle: saline 97 % of control | dose: 200.0 mg/kg/injection, schedule: Q01DX005 (ip), vehicle: saline 90 % of control

CC1=C(N2CC2)C(=O)c2ccccc2C1=O
inactive: dose: 12.5 mg/kg/injection, schedule: Q04DX003 (ip), vehicle: Klucel (hydroxypropylcellulose) (HPC) 98 % of control | dose: 25.0 mg/kg/injection, schedule: Q04DX003 (ip), vehicle: Klucel (hydroxypropylcellulose) (HPC) 102 % of control | dose: 50.0 mg/kg/injection, schedule: Q04DX003 (ip), vehicle: Klucel (hydroxypropylcellulose) (HPC) 102 % of control | dose: 100.0 mg/kg/injection, schedule: Q01DX001 (ip), vehicle: Klucel (hydroxypropylcellulose) (HPC) 102 % of control | [6] 102 % of control

CC(=O)NCC(O)c1ccccc1 (stereo unspecified)
inactive: [7] 94 % of control | [8] 100 % of control | [9] 91 % of control

O=C(Nc1cccc(C(=O)Nc2cc(C3=NCCN3)cc(C3=NCCN3)c2)c1)Nc1cccc(C(=O)Nc2cc(C3=NCCN3)cc(C3=NCCN3)c2)c1
inactive: dose: 15.0 mg/kg/injection, schedule: Q01DX Z (ip), vehicle: methylcellulose (MC) 109 % of control | dose: 30.0 mg/kg/injection, schedule: Q01DX Z (ip), vehicle: methylcellulose (MC) 105 % of control | dose: 60.0 mg/kg/injection, schedule: Q01DX Z (ip), vehicle: methylcellulose (MC) 96 % of control

CC(=O)N(c1ccccc1)c1cc(Cl)cc[n+]1[O-]
inactive: [7] 96 % of control | [8] 96 % of control | [9] 97 % of control

COc1cc(C)c2c([N+](=O)[O-])cc([N+](=O)[O-])c(OC)c2n1
inactive: dose: 75.0 mg/kg/injection, schedule: Q01DX009 (ip), vehicle: Klucel (hydroxypropylcellulose) (HPC) 98 % of control | [6] 106 % of control | dose: 150.0 mg/kg/injection, schedule: Q01DX009 (ip), vehicle: Klucel (hydroxypropylcellulose) (HPC) 101 % of control | [10] 93 % of control | dose: 300.0 mg/kg/injection, schedule: Q01DX009 (ip), vehicle: Klucel (hydroxypropylcellulose) (HPC) 95 % of control | dose: 400.0 mg/kg/injection, schedule: Q04DX003 (ip), vehicle: Klucel (hydroxypropylcellulose) (HPC) 103 % of control

C/C=C/C(=O)OC1CC2OC3C=C(C)C4OC4C3(C)C1(C)C21CO1 (stereo unspecified)
inactive: [1] 96 % of control | [2] 96 % of control | [11] 90 % of control | [12] 108 % of control | [13] 92 % of control | [14] 88 % of control

c1ccc2cc(CCc3cc4ccccc4cn3)ncc2c1
inactive: [11] 105 % of control | [13] 94 % of control | [14] 87 % of control

O=[N+]([O-])c1cc(F)c(F)cc1F
inactive: [6] 98 % of control | [10] 107 % of control

N/C(=N\[N+](=O)[O-])N(Cc1ccccc1)/N=C/c1ccccc1
inactive: dose: 87.5 mg/kg/injection, schedule: Q04DX003 (ip), vehicle: Klucel (hydroxypropylcellulose) (HPC) 92 % of control | dose: 175.0 mg/kg/injection, schedule: Q04DX003 (ip), vehicle: Klucel (hydroxypropylcellulose) (HPC) 92 % of control | dose: 350.0 mg/kg/injection, schedule: Q04DX003 (ip), vehicle: Klucel (hydroxypropylcellulose) (HPC) 88 % of control

CCC/C(=N/NC(=O)C1CCCO1)c1ccccc1 (stereo unspecified)
inactive: [15] 104 % of control | dose: 50.0 mg/kg/injection, schedule: Q01DX009 (ip), vehicle: Klucel (hydroxypropylcellulose) (HPC) 102 % of control | dose: 100.0 mg/kg/injection, schedule: Q01DX009 (ip), vehicle: Klucel (hydroxypropylcellulose) (HPC) 104 % of control and 88 % of control

O=C1NC(=O)C(Cc2ccccc2)(Cc2ccccc2)C(=O)N1
inactive: dose: 100.0 mg/kg/injection, schedule: Q01DX001 (ip), vehicle: carboxymethylcellulose (CMC) 103 % of control | dose: 200.0 mg/kg/injection, schedule: Q01DX001 (ip), vehicle: carboxymethylcellulose (CMC) 95 % of control | dose: 400.0 mg/kg/injection, schedule: Q01DX001 (ip), vehicle: carboxymethylcellulose (CMC) 95 % of control

CC(=O)OC1CC2CCC1(C)C2(C)C (stereo unspecified)
inactive: dose: 50.0 mg/kg/injection, schedule: Q01DX009 (ip), vehicle: saline with Tween-80 100 % of control | [1] 96 % of control | dose: 100.0 mg/kg/injection, schedule: Q01DX009 (ip), vehicle: saline with Tween-80 96 % of control | [2] 98 % of control | [11] 87 % of control | dose: 200.0 mg/kg/injection, schedule: Q01DX009 (ip), vehicle: saline with Tween-80 96 % of control | [12] 89 % of control | [13] 90 % of control

COc1ccc(NC(=O)/C=C/C(=O)Nc2ccc(OC)cc2)cc1
inactive: dose: 100.0 mg/kg/injection, schedule: Q04DX003 (ip), vehicle: saline with Tween-80 100 % of control | dose: 200.0 mg/kg/injection, schedule: Q04DX003 (ip), vehicle: saline with Tween-80 112 % of control | dose: 400.0 mg/kg/injection, schedule: Q04DX003 (ip), vehicle: saline with Tween-80 100 % of control

CCOC(=O)Cc1cc(=O)c2ccc(Cl)cc2[nH]1
inactive: [3] 92 % of control | [4] 97 % of control | [5] 92 % of control

NC(CCl)=NCCCN1CCCCC1
inactive: dose: 12.5 mg/kg/injection, schedule: Q01DX009 (ip), vehicle: Klucel (hydroxypropylcellulose) (HPC) 104 % of control | dose: 12.5 mg/kg/injection, schedule: Q04DX002 (ip), vehicle: Klucel (hydroxypropylcellulose) (HPC) 107 % of control | [15] 96 % of control | dose: 25.0 mg/kg/injection, schedule: Q04DX002 (ip), vehicle: Klucel (hydroxypropylcellulose) (HPC) 96 % of control | dose: 50.0 mg/kg/injection, schedule: Q04DX002 (ip), vehicle: Klucel (hydroxypropylcellulose) (HPC) 105 % of control

Cc1ccc(S(=O)(=O)N(CCCc2c(-c3ccccc3)nc(N)[nH]c2=O)c2ccccc2)cc1
inactive: dose: 100.0 mg/kg/injection, schedule: Q01DX009 (ip), vehicle: gum acacia 101 % of control | dose: 200.0 mg/kg/injection, schedule: Q01DX009 (ip), vehicle: gum acacia 100 % of control | dose: 400.0 mg/kg/injection, schedule: Q01DX009 (ip), vehicle: gum acacia 99 % of control

CCCS(=O)[O-].CCCS(=O)[O-].[Zn+2]
inactive: dose: 75.0 mg/kg/injection, schedule: Q01DX001 (ip), vehicle: saline 104 % of control
